US9504675B2, “Alpha-ketoheterocycles and methods of making and using” (The Scripps Research Institute, priority 2011, dated 2016)
Like-named read-outs stand apart in the source and are kept apart here.

Tests used:
[1] = biological target: T1, recombinant rat FAAH (rFAAH) (Rattus norvegicus, UniProt P97612); assay: Enzyme assay: inhibition of purified recombinant rat FAAH, 14C-oleamide hydrolysis, Ki by Dixon plot; format: biochemical; conditions: for potency of more active (S)-enantiomer over (R)-enantiomer: ratio of FAAH inhibition between enantiomers
T1 construct: The truncated rat FAAH (rFAAH) was expressed in E. coli and purified; made in house; host or cells: Escherichia coli
T1 sequence (P97612 30-579 limits assumed): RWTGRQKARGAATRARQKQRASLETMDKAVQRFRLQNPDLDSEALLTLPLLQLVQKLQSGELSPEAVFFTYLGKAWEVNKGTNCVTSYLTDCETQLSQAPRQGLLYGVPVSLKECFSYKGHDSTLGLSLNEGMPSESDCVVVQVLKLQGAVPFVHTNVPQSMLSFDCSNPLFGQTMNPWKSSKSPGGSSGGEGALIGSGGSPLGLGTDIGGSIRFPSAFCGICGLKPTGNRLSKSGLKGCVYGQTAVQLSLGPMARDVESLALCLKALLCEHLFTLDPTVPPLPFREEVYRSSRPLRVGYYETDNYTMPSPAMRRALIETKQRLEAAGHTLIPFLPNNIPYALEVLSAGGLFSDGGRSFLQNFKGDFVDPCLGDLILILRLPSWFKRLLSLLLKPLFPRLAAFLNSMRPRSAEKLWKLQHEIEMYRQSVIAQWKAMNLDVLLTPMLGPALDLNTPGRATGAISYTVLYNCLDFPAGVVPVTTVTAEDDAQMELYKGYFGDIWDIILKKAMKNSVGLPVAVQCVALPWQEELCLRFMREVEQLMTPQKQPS
Method: Enzyme assays were performed at 20-23° C. with purified recombinant rat FAAH expressed in Escherichia coli or with solubilized COS-7 membrane extracts from cells transiently transfected with human FAAH cDNA (where specifically indicated) in a buffer of 125 mM Tris/1 mM EDTA/0.2% glycerol/0.02% Triton X-100/0.4 mM Hepes, pH 9.0.
^14C-labeled oleamide was prepared from ^14C-labeled oleic acid. The truncated rat FAAH (rFAAH) was expressed in E. coli and purified. The purified recombinant rFAAH was used in the inhibition assays unless otherwise indicated. The full-length human FAAH (hFAAH) was expressed in COS-7 cells as described, and the lysate of hFAAH-transfected COS-7 cells was used in the inhibition assays where explicitly indicated.
The inhibition assays were performed as follows. […] The enzyme reaction was terminated by transferring 20 μL of the reaction mixture to 500 μL of 0.1 N HCl at three different time points. The ^14C-labeled oleamide (substrate) and oleic acid (product) were extracted with EtOAc and analyzed by TLC as detailed. The Ki of the inhibitor was calculated using a Dixon plot as described (standard deviations are provided in the Supporting Information tables).

[2] = tested on: endogenous levels of FAAH substrates AEA, PEA, OEA and of 2-AG, AA; assay: In vivo pharmacodynamic studies: brain and liver lipid levels after inhibitor treatment (LC-MS); set-up: species or system mouse (C57BL/6J); conditions: Table 6, 30 mg/kg i.p., 1 h, single mouse; for Brain 2-AG (fold increase) / Brain AA (fold increase) / Brain AEA (fold increase) / Brain PEA (fold increase): vs vehicle
Method: This includes monitoring the effects of the inhibitors on the endogenous levels of the FAAH substrates anandamide (AEA, N-arachidonoyl ethanolamine), N-oleoyl ethanolamine (OEA), and N-palmitoyl ethanolamine (PEA), as well as the key lipids 2-arachidonoylglycerol (2-AG) and arachidonic acid (AA) that are not endogenous substrates for FAAH.
Inhibitors were prepared as a saline-emulphor emulsion for intraperitoneal (i.p.) administration by vortexing, sonicating, and gently heating neat compound directly into an 18:1:1 v/v/v solution of saline:ethanol:emulphor, or as a homogeneous PEG solution for oral administration (p.o.) by vortexing, sonicating, and gently heating neat compound directly into PEG300 (Fluka). Male C57BL/6J mice (<6 months old, 20-28 g) were administered inhibitors in saline-emulphor emulsion or an 18:1:1 v/v/v saline:emulphor:ethanol vehicle i.p. at a volume of 10 μL/g weight, or alternatively inhibitors in PEG300 or a PEG300 vehicle p.o. at a volume of 4 μL/g weight. After the indicated amount of time, mice were anesthetized with isofluorane and killed by decapitation. Total brains (˜400 mg) and a portion of the liver (˜100 mg) were removed and flash frozen in liquid N2.
Tissue was weighed and subsequently Dounce homogenized in 2:1:1 v/v/v CHCl3:MeOH:Tris pH 8.0 (8 mL) containing standards for lipids (50 pmol d4-PEA, 2 pmol d4-AEA, 0.5 nmol ds-2-AG, and 10 nmol pentadecanoic acid). The mixture was vortexed and then centrifuged (1,400×g, 10 min). The organic layer was removed, dried under a stream of N2, resolubilized in 2:1 v/v CHCl3:MeOH (120 μL), and 10 μL of this resolubilized lipid was injected onto an Agilent G6410B QQQ instrument. […] Mobile phase A was composed of a 95:5 v/v H2O:MeOH, and mobile phase B was composed of a 65:35:5 v/v/v i-PrOH:MeOH:H2O. 0.1% Formic acid or 0.1% ammonium hydroxide was included to assist in ion formation in positive and negative ionization mode, respectively. The flow rate for each run started at 0.1 mL/min with 0% B. At 5 min, the solvent was immediately changed to 60% B with a flow rate of 0.4 mL/min and increased linearly to 100% B over 10 min. […] MS analysis was performed with an electrospray ionization (ESI) source. […] For negative polarity, the analysis was performed in MS2 scan mode from 100-1000 m/z. The capillary was set to 4 kV, the fragmentor was set to 100 V, and the delta EMV was set to 0. Lipids were quantified by measuring the area under the peak in comparison to the standards.

[3] = Ki, Table 2, (S)-enantiomer, 1,2,3,4-tetrahydronaphthalene C2 acyl side chain
[4] = Ki, Table 3, tentatively assigned (S)-enantiomer, indane C2 acyl side chain
[5] = Ki, Table 4, (S)-enantiomer, additional FAAH inhibitors

## O=C(c1ncco1)C1CCc2cc(OCc3ccccc3)ccc2C1 (single isomer, unassigned) [(S)-15, (6-(Benzyloxy)-1,2,3,4-tetrahydronaphthalen-2-yl)(oxazol-2-yl)methanone]
[1]; [3]
  Ki: 6.1 nM

## COC(=O)c1cnc(C(=O)C2CCc3cc(OCc4ccccc4)ccc3C2)o1 (single isomer, unassigned) [(S)-16, Methyl 2-(6-(Benzyloxy)-1,2,3,4-tetrahydronaphthalene-2-carbonyl)oxazole-5-carboxylate]
[1]; [3]
  Ki: 2.9 nM

## N#Cc1cnc(C(=O)C2CCc3cc(OCc4ccccc4)ccc3C2)o1 (single isomer, unassigned) [(S)-17, 2-(6-(Benzyloxy)-1,2,3,4-tetrahydronaphthalene-2-carbonyl)oxazole-5-carbonitrile]
[1]; [3]
  Ki: 3.2 nM

## O=C(c1ncc(-c2ccccn2)o1)C1CCc2cc(OCc3ccccc3)ccc2C1 (single isomer, unassigned) [(S)-18, (6-(Benzyloxy)-1,2,3,4-tetrahydronaphthalen-2-yl)(5-(pyridin-2-yl)oxazol-2-yl)methanone]
[1]; [3]
  Ki: 3.2 nM

## COC(=O)c1cccc(-c2cnc(C(=O)C3CCc4cc(OCc5ccccc5)ccc4C3)o2)n1 (single isomer, unassigned) [(S)-19, Methyl 6-(2-(6-(Benzyloxy)-1,2,3,4-tetrahydronaphthalene-2-carbonyl)oxazol-5-yl)picolinate]
[1]; [3]
  Ki: 18 nM

## O=C(O)c1cccc(-c2cnc(C(=O)C3CCc4cc(OCc5ccccc5)ccc4C3)o2)n1 (single isomer, unassigned) [(S)-20, 6-(2-(6-(Benzyloxy)-1,2,3,4-tetrahydronaphthalene-2-carbonyl)oxazol-5-yl)picolinic acid]
[1]; [3]
  Ki: 34 nM

## O=C(c1ncco1)C1Cc2ccc(-c3ccccc3)cc2C1 (single isomer, unassigned) [(S)-22, Oxazol-2-yl(5-phenylindan-2-yl)methanone]
[1]; [4]
  Ki: 27 nM

## O=C(c1ncc(-c2ccccn2)o1)C1Cc2ccc(-c3ccccc3)cc2C1 (single isomer, unassigned) [(S)-23, (5-Phenylindan-2-yl)-(5-(pyridin-2-yl)oxazol-2-yl)methanone]
[1]; [4]
  Ki: 1.9 nM

## O=C(c1ncco1)C1Cc2ccc(Oc3ccccc3)cc2C1 (single isomer, unassigned) [(S)-26, Oxazol-2-yl(5-phenoxyindan-2-yl)methanone]
[1]; [4]
  Ki: 10 nM

## O=C(c1ncc(-c2ccccn2)o1)C1Cc2ccc(Oc3ccccc3)cc2C1 (single isomer, unassigned) [(S)-27, (5-Phenoxyindan-2-yl)(5-(pyridin-2-yl)oxazol-2-yl)methanone]
[1]; [4]
  Ki: 2.1 nM

## COC(=O)c1cccc(-c2cnc(C(=O)C3Cc4ccc(Oc5ccccc5)cc4C3)o2)n1 (single isomer, unassigned) [(S)-28]
[1]; [4]
  Ki: 98 nM

## O=C(O)c1cccc(-c2cnc(C(=O)C3Cc4ccc(Oc5ccccc5)cc4C3)o2)n1 (single isomer, unassigned) [(S)-29, 6-(2-(5-Phenoxyindane-2-carbonyl)oxazol-5-yl)picolinic acid]
[1]; [4]
  Ki: 71 nM

## O=C(c1ncc(-c2ccccn2)o1)C1Cc2ccc(OCc3ccccc3)cc2C1 (single isomer, unassigned) [(S)-31, (5-(Benzyloxy)indan-2-yl)(5-(pyridin-2-yl)oxazol-2-yl)methanone]
[1]; [4]
  Ki: 1.4 nM

## COC(=O)c1cccc(-c2cnc(C(=O)C3Cc4ccc(OCc5ccccc5)cc4C3)o2)n1 (single isomer, unassigned) [(S)-32, Methyl 6-(2-(5-(Benzyloxy)indane-2-carbonyl)oxazol-5-yl)picolinate]
[1]; [4]
  Ki: 5.8 nM

## O=C(O)c1cccc(-c2cnc(C(=O)C3Cc4ccc(OCc5ccccc5)cc4C3)o2)n1 (single isomer, unassigned) [(S)-33, 6-(2-(5-(Benzyloxy)indane-2-carbonyl)oxazol-5-yl)picolinic acid]
[1]; [4]
  Ki: 51 nM

## O=C(c1nnco1)C1CCc2cc(Oc3ccccc3)ccc2C1 (single isomer, unassigned) [(S)-34, (1,3,4-Oxadlazol-2-yl)(6-phenoxy-1,2,3,4-tetrahydronaphthalen-2-yl)methanone]
[1]; [5]
  Ki: 0.5 nM

## COC(=O)c1nnc(C(=O)C2CCc3cc(Oc4ccccc4)ccc3C2)o1 (single isomer, unassigned) [(S)-35, Methyl 5-(6-Phenoxy-1,2,3,4-tetrahydronaphthalene-2-carbonyl)-[1,3,4]oxadiazole-2-carboxylate]
[1]; [5]
  Ki: 1.5 nM

## O=C(c1nnc(-c2ccccn2)o1)C1CCc2cc(Oc3ccccc3)ccc2C1 (single isomer, unassigned) [(S)-36, (6-Phenoxy-1,2,3,4-tetrahydronaphthalen-2-yl)(5-(pyridin-2-yl)-1,3,4-oxadiazol-2-yl)methanone]
[1]; [5]
  Ki: 1 nM

## O=C(c1ncco1)C1CCc2ccccc2C1 (single isomer, unassigned) [(S)-37, Oxazol-2-yl(1,2,3,4-tetrahydronaphthalen-2-yl)methanone]
[1]; [5]
  Ki: 5100 nM

## O=C(c1ncc(-c2ccccn2)o1)C1CCc2ccccc2C1 (single isomer, unassigned) [(S)-38, (5-(Pyridin-2-yl)oxazol-2-yl)(1,2,3,4-tetrahydronaphthalen-2-yl)methanone]
[1]; [5]
  Ki: 430 nM

## O=C(c1ncc(I)o1)C1CCc2cc(OCc3ccccc3)ccc2C1 (stereo not shown) [Compound 21, (6-(Benzyloxy)-1,2,3,4-tetrahydronaphthalen-2-yl)(5-iodooxazol-2-yl)methanone]
[1]
  potency of more active (S)-enantiomer over (R)-enantiomer: ca. 200 fold

## O=C(c1ncc(-c2ccccn2)o1)C1Cc2ccc(Oc3ccccc3)cc2C1 (stereo not shown) [Compound 27, (5-Phenoxyindan-2-yl)(5-(pyridin-2-yl)oxazol-2-yl)methanone]
[2]
  Brain 2-AG: 11 pmol/g
  Brain AA: 190 pmol/g
  Brain AEA: 24 pmol/g
  Brain PEA: 800 pmol/g
  Brain 2-AG (fold increase): 0.8 fold increase
  Brain AA (fold increase): 0.9 fold increase
  Brain AEA (fold increase): 3.0 fold increase
  Brain PEA (fold increase): 7.4 fold increase

## O=C(O)c1cccc(-c2cnc(C(=O)C3Cc4ccc(Oc5ccccc5)cc4C3)o2)n1 (stereo not shown) [Compound 29, 6-(2-(5-Phenoxyindane-2-carbonyl)oxazol-5-yl)picolinic acid]
[2]
  Brain 2-AG: 12 pmol/g
  Brain AA: 172 pmol/g
  Brain AEA: 8 pmol/g
  Brain PEA: 131 pmol/g
  Brain 2-AG (fold increase): 0.9 fold increase
  Brain AA (fold increase): 0.8 fold increase
  Brain AEA (fold increase): 1.0 fold increase
  Brain PEA (fold increase): 1.2 fold increase

## O=C(c1ncco1)C1CCc2ccccc2C1 (stereo not shown) [Compound 37, Oxazol-2-yl(1,2,3,4-tetrahydronaphthalen-2-yl)methanone]
[1]; (S)-enantiomer
  improvement in potency relative to the corresponding oxazole 9: 4-5 fold
[1]; Ki, first of the two enantiomers, text b169, enantiomer distinction 5.1 vs 12 μM
  Ki: 5100 nM
[1]; Ki, second of the two enantiomers, text b169, enantiomer distinction 5.1 vs 12 μM
  Ki: 12000 nM
[1]
  potency of more active (S)-enantiomer over (R)-enantiomer: ca. 2 fold

## O=C(c1ncc(-c2ccccn2)o1)C1CCc2ccccc2C1 (stereo not shown) [Compound 38, (5-(Pyridin-2-yl)oxazol-2-yl)(1,2,3,4-tetrahydronaphthalen-2-yl)methanone]
[1]
  Ki relative to the FAAH inhibitor lacking the conformational constraints (Ki=200 nM): 2 fold
[1]; Ki
  Ki: 430 nM

## O=C(c1ncco1)C1Cc2ccccc2C1 [Compound 39, (Indan-2-yl)(oxazol-2-yl)methanone]
[1]; Table 4, meso indane derivatives without aryl substituent, read-out: Ki
  Ki: 7100 nM

## O=C(c1ncc(-c2ccccn2)o1)C1Cc2ccccc2C1 [Compound 40, (Indan-2-yl)(5-(pyridin-2-yl)oxazol-2-yl)methanone]
[1]
  Ki relative to the FAAH inhibitor lacking the conformational constraints (Ki=200 nM): 5 fold
[1]; read-out: Ki
  Ki: 1100 nM
